Like-named read-outs stand apart in the source and are kept apart here.
Tests used:
human OCT2 [1] = target: T1, human OCT2 (Homo sapiens, UniProt O15244); assay: Cis-inhibition of OCT2-mediated DiASP uptake in HEK-OCT2 cells
T1 sequence (O15244 1-555): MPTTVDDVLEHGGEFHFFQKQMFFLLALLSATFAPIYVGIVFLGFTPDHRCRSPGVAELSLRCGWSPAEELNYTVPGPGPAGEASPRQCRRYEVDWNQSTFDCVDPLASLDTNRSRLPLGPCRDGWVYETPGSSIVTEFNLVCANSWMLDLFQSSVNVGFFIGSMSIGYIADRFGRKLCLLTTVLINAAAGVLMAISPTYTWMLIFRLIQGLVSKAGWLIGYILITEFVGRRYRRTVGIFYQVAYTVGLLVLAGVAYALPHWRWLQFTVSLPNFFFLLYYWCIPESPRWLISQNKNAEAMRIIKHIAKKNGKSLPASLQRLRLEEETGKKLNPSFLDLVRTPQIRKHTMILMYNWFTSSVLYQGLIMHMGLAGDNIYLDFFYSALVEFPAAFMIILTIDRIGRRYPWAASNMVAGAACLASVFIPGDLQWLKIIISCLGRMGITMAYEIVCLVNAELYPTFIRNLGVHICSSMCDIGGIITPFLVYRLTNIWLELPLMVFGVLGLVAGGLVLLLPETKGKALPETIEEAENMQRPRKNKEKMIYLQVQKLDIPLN
Method: (§1) They were cultured in Dulbecco’s modified Eagle medium (DMEM) (Life Technologies, Carlsbad, CA, USA), supplemented with 10% (vol/vol) fetal calf serum, 10 IU/mL penicillin, 10 μg/mL streptomycin, 1% non-essential amino acids, and 1 μg/mL insulin, as already reported.
Cis-inhibition of OCT2 activity was analysed as previously described. Briefly, HEK-OCT2 cells were incubated with 10 µM DiASP, in the absence (control) of the presence of 100 µM amitriptyline (used here as a reference inhibitor of OCT2 activity) or of various concentrations of the OCT2 substrates, for 5 min. The transport assay medium consisted of 5.3 mM KCl, 1.1 mM KH2PO4, 0.8 mM MgSO4, 1.8 mM CaCl2, 11 mM dextrose, 10 mM HEPES, and 136 mM NaCl, adjusted to pH = 7.4. Next, cells were washed with phosphate-buffered saline (PBS) and lysed in distilled water. Intracellular accumulation of DiASP was then determined by spectrofluorimetry using a PerkinElmer Enspire spectrofluorometer (Waltham, MA, USA); excitation and emission wavelengths were 485 nm and 607 nm, respectively. DiASP accumulation values were thereafter normalized to total protein content, determined by the Bradford method.
IC50 values of OCT2 substrates towards OCT2-mediated uptake of DiASP and the corresponding 95% confidence intervals were determined from nonlinear regression of concentration-response data, based on the four-parameter logistic function. They were calculated using Prism 9.3 software (GraphPad Software, San Diego, CA, USA), through the following Equation (2):(2) A = 100/1 + 10^OCT2 substrate − LogIC50 × Hill slope where A = the percentage of transporter activity for a given concentration of OCT2 substrate determined as described in Equation (1), [OCT2 substrate] = OCT2 substrate concentration in the transport assay medium, and Hill slope = a coefficient describing the steepness of the curve.

human OCT2 [2] = target: T1, human OCT2; assay: Uptake trans-stimulation assay of OCT2-mediated DiASP uptake in HEK-OCT2 cells; type: cell-based; parameters: host or cells: HEK293 (HEK-OCT2); details: for Trans-modulation of OCT2-mediated DiASP uptake (in words): HEK-OCT2 cells preloaded 30 min with substrate, 0.01–10 mM or 0.1–100 µM range
Method: Uptake trans-stimulation assays were performed as schematically depicted in Figure 4.
Figure 4 Schematic representation of the various steps of the trans-stimulation assay performed for investigating OCT2 substrates (created with biorender.com). Step 1 corresponds to the initial incubation of cells without (Control) or with candidate substrate for 30 min at 37 °C. Step 2 consists of the incubation of cells with the reference tracer substrate (DiASP) for 5 min at 37 °C. Step 3 is the measurement of cellular accumulation of DiASP through spectrofluorimetry.
as §1
OCT2 trans-stimulation assays were performed through monitoring cellular uptake of the tracer substrate DiASP. As schematically depicted in Figure 4, HEK-OCT2 cells were first incubated in the absence (control) or presence of different concentrations of OCT2 substrates for 30 min at 37 °C in the transport assay medium described above. After washing with PBS, cells were re-incubated with 10 µM DiASP for 5 min. Cellular accumulation of the fluorescence dye was next determined by spectrofluorimetry, as reported above. Data were commonly expressed as % of DiASP uptake in control cells, set at 100%, or as fluorescence arbitrary units (FAU)/mg protein.

OCT3 (SLC22A3) = tested on: OCT3 (SLC22A3); parameters: method as in PMID 12538837; details: cited from earlier work
OCT2 = details: cited from earlier work; for Trans-stimulation of OCT2 activity: radiolabelled MPP+ as tracer substrate; for Trans-stimulation of OCT2-mediated MPP+ uptake: MPP+ as tracer
HEK-MOCK cells = assay: Trans-stimulation assay of DiASP uptake in control HEK-MOCK cells; type: cell-based, human; details: data not shown
[3] = HEK-OCT2 cells preloaded 30 min 37 °C, washed, then 10 µM DiASP 5 min
[4] = read-out: IC50 towards OCT2-mediated uptake of DiASP (cis-inhibition), HEK-OCT2 cells, 10 µM DiASP, 5 min, 37 °C, 95% CI in brackets

| Structure (SMILES) | IC50 (human OCT2 [1]) [µM] | Trans-modulation of OCT2-mediated DiASP uptake (in words) (human OCT2 [2]) | Lowest trans-inhibiting concentration towards DiASP uptake (human OCT2 [2]; [3]) [mM] | also measured |
| --- | --- | --- | --- | --- |
| CC(=O)OCC[N+](C)(C)C [Acetylcholine, acetylcholine] | 530 | trans-stimulate | – | – |
| NCCCCN=C(N)N [Agmatine, agmatine] | 410 | trans-stimulate | 10 | Trans-stimulation of OCT3 activity (OCT3 (SLC22A3)): trans-stimulate; Loading concentration that significantly trans-stimulates DiASP uptake (human OCT2 [2]; [3]): 0.1 mM |
| CCN1CCCC1CNC(=O)c1cc(S(=O)(=O)CC)c(N)cc1OC (centres unmarked) [Amisulpride, amisulpride] | 40 | – | – | – |
| C[N+](C)(C)CCO [Choline, choline] | 1330 | trans-stimulate | – | Trans-stimulation of OCT2 activity (OCT2): trans-stimulate; Loading concentration that significantly trans-stimulates DiASP uptake (human OCT2 [2]; [3]): 1 mM |
| CN/C(=N/CCSCc1nc[nH]c1C)NC#N [Cimetidine, cimetidine] | 79.6 | failed to trans-stimulate | 10 | Trans-stimulation of OCT2-mediated MPP+ uptake (OCT2): failed to trans-stimulate |
| NCCc1ccc(O)c(O)c1 [Dopamine, dopamine] | 2390 | – | 10 | – |
| CNC[C@H](O)c1ccc(O)c(O)c1 [Epinephrine, epinephrine] | 1490 | – | 1 | – |
| Nc1ccn([C@@H]2CS[C@H](CO)O2)c(=O)n1 [Lamivudine, lamivudine] | 1900 | – | – | Lowest trans-inhibiting concentration towards DiASP uptake (human OCT2 [2]): 10 mM |
| C[n+]1ccc(-c2ccccc2)cc1 [MPP^+, 1-methyl-4-phenyl pyridinium] | – | failed to trans-stimulate | – | IC50 (human OCT2 [1]; [4]): 0.91 µM; Trans-stimulation of OCT2-mediated MPP+ uptake (OCT2): failed to trans-stimulate |
| CN(C)C(=N)N=C(N)N [Metformin, metformin] | 1140 | trans-stimulate | – | Trans-stimulation of DiASP uptake in control HEK-MOCK cells (HEK-MOCK cells): failed to significantly trans-stimulate; Trans-stimulation of OCT2 activity (OCT2): trans-stimulate |
| COCCn1c2c([n+](Cc3cnccn3)c1C)C(=O)c1ccccc1C2=O [Sepantronium, sepantronium] | 7.04 | – | 0.001 | – |
| NCCc1c[nH]c2ccc(O)cc12 [Serotonin, serotonin] | 180 | – | 1 | – |
| CC[N+](CC)(CC)CC [TEA, tetra-ethylammonium] | – | – | – | IC50 (human OCT2 [1]; [4]): 180 µM |
| Cc1ncc(C[n+]2csc(CCO)c2C)c(N)n1 [Thiamine, thiamine] | 270 | – | 10 | – |
| CN(C)CCC=C1c2ccccc2CCc2ccccc21 [amitriptyline] | – | – | – | Effect on uptake of DiASP in HEK-OCT2 cells not preloaded with metformin (human OCT2 [1]; 100 µM amitriptyline, 10 µM DiASP 5 min 37 °C): abolished; Effect on metformin-stimulated uptake of DiASP (human OCT2 [2]; 100 µM amitriptyline during DiASP step, cells preloaded with 10 mM metformin 30 min): fully suppressed |

From paper PMC8657912, “Substrate-Dependent Trans-Stimulation of Organic Cation Transporter 2 Activity” (International Journal of Molecular Sciences, 2021)
